Assay results published in US4920103A, “Modifications of mycinose and 3-O-demethylmycinose in tylosin-type macrolides” (Eli Lilly and Company, priority 1986, dated 1990).
≈ marks a conversion by molar mass, not a printed value. Where two headings read alike, the source gives them in different places.

Legend:
[1] = tested on: Pasteurella multocida 17E; assay: MIC, broth-dilution microtiter test, P. multocida 17E; assay type: cell-based; conditions: Pasteurella multocida, 17E
Method: (§1) The MIC's in Table II were determined by standard agar-dilution assays. The MIC's in Table III were obtained using conventional broth-dilution microtiter tests.

[2] = tested on: Pasteurella hemolytica 41D; assay: MIC, broth-dilution microtiter test, P. hemolytica 41D; assay type: cell-based
Method: as §1

[3] = tested on: Staphylococcus aureus X400; assay: MIC, standard agar-dilution assay, S. aureus X400; assay type: cell-based
Method: as §1

[4] = tested on: Mycoplasma gallisepticum 29C; assay: MIC, broth-dilution microtiter test, M. gallisepticum 29C; assay type: cell-based; conditions: Mycoplasmoides gallisepticum
Method: as §1

[5] = tested on: Pasteurella multocida 68C; assay: MIC, broth-dilution microtiter test, P. multocida 68C; assay type: cell-based
Method: as §1

[6] = tested on: Pasteurella multocida 40G; assay: MIC, broth-dilution microtiter test, P. multocida 40G; assay type: cell-based
Method: as §1

[7] = tested on: Pasteurella multocida 22A; assay: MIC, broth-dilution microtiter test, P. multocida 22A; assay type: cell-based
Method: as §1

[8] = tested on: Mycoplasma hyopneumoniae S5972; assay: MIC, broth-dilution microtiter test, M. hyopneumoniae S5972; assay type: cell-based; conditions: Mesomycoplasma hyopneumoniae, S5972
Method: as §1

[9] = tested on: Staphylococcus aureus X1.1; assay: MIC, standard agar-dilution assay, S. aureus X1.1; assay type: cell-based
Method: as §1

[10] = tested on: Pasteurella hemolytica 22C; assay: MIC, broth-dilution microtiter test, P. hemolytica 22C; assay type: cell-based
Method: as §1

[11] = tested on: Streptococcus Group D 2041; assay: MIC, standard agar-dilution assay, Streptococcus Group D 2041; assay type: cell-based; conditions: GROUPD2041
Method: as §1

[12] = tested on: Streptococcus pneumoniae Park I; assay: MIC, standard agar-dilution assay, S. pneumoniae Park I; assay type: cell-based; conditions: Streptococcus pneumoniae
Method: as §1

[13] = tested on: Pseudomonas aeruginosa X239; assay: MIC, standard agar-dilution assay, P. aeruginosa X239; assay type: cell-based
Method: as §1

[14] = tested on: Klebsiella pneumoniae X68; assay: MIC, standard agar-dilution assay, K. pneumoniae X68; assay type: cell-based
Method: as §1

[15] = tested on: Haemophilus influenzae 76; assay: MIC, standard agar-dilution assay, H. influenzae 76; assay type: cell-based
Method: as §1

[16] = tested on: Staphylococcus aureus S13E; assay: MIC, standard agar-dilution assay, S. aureus S13E; assay type: cell-based
Method: as §1

[17] = tested on: Streptococcus Group D X66; assay: MIC, standard agar-dilution assay, Streptococcus Group D X66; assay type: cell-based
Method: as §1

[18] = tested on: Staphylococcus aureus V41; assay: MIC, standard agar-dilution assay, S. aureus V41; assay type: cell-based; conditions: Staphylococcus aureus, V41
Method: as §1

[19] = tested on: Bordetella bronchiseptica; assay: MIC, broth-dilution microtiter test, B. bronchiseptica; assay type: cell-based
Method: as §1

[20] = tested on: Mycoplasma synoviae 40A; assay: MIC, broth-dilution microtiter test, M. synoviae 40A; assay type: cell-based; conditions: Mycoplasmopsis synoviae, 40A
Method: as §1

[21] = tested on: Streptococcus pyogenes C203; assay: MIC, standard agar-dilution assay, S. pyogenes C203; assay type: cell-based; conditions: Streptococcus pyogenes, C203
Method: as §1

[22] = tested on: Escherichia coli EC14; assay: MIC, standard agar-dilution assay, E. coli EC14; assay type: cell-based
Method: as §1

[23] = tested on: Pasteurella hemolytica 23C; assay: MIC, broth-dilution microtiter test, P. hemolytica 23C; assay type: cell-based
Method: as §1

[24] = tested on: Pasteurella multocida 60A; assay: MIC, broth-dilution microtiter test, P. multocida 60A; assay type: cell-based
Method: as §1

[25] = tested on: Haemophilus influenzae C.L.; assay: MIC, standard agar-dilution assay, H. influenzae C.L.; assay type: cell-based
Method: as §1

[26] = tested on: Mycoplasma hyorhinis 29E; assay: MIC, broth-dilution microtiter test, M. hyorhinis 29E; assay type: cell-based; conditions: Mycoplasma, 29E
Method: as §1

[27] = tested on: Staphylococcus aureus; assay: MIC, broth-dilution microtiter test, S. aureus; assay type: cell-based
Method: as §1

[28] = tested on: Staphylococcus epidermidis 222; assay: MIC, standard agar-dilution assay, S. epidermidis 222; assay type: cell-based
Method: as §1

[29] = tested on: Streptococcus sp. 19F; assay: MIC, broth-dilution microtiter test, Streptococcus sp. 19F; assay type: cell-based; conditions: Streptococcus, SP.19F
Method: as §1

[30] = tested on: Mycoplasma gallisepticum 36H; assay: MIC, broth-dilution microtiter test, M. gallisepticum 36H; assay type: cell-based; conditions: Mycoplasmoides gallisepticum
Method: as §1

[31] = tested on: Staphylococcus epidermidis EPI1; assay: MIC, standard agar-dilution assay, S. epidermidis EPI1; assay type: cell-based
Method: as §1

[32] = tested on: Streptococcus pyogenes C203; assay: Protection of mice experimentally infected with Streptococcus pyogenes C203; assay type: in vivo; conditions: Streptococcus pyogenes, doses given 1 and 4 hours postinfection, read-out: ED50
Method: The formula 1 compounds have shown in vivo antimicrobial activity against experimentally-induced infections in laboratory animals. When two doses of test compound were administered to mice experimentally infected with Streptococcus pyogenes C203, the activity observed was measured as an ED50 value [effective dose in mg/kg to protect 50% of the test animals: see Warren Wick, et al., J. Bacteriol. 81, 233-235 (1961)].
^a mg/kg × 2; doses given 1 and 4 hours postinfection

[33] = tested on: Mycoplasma gallisepticum 15E; assay: MIC, broth-dilution microtiter test, M. gallisepticum 15E; assay type: cell-based; conditions: Mycoplasmoides gallisepticum
Method: as §1

[34] = broth-dilution microtiter, read-out: MIC

Row | SMILES | MIC [1] [µg/mL] | MIC [2] [µg/mL] | MIC [3] [µg/mL] | MIC [5] [µg/mL] | MIC [6] [µg/mL] | MIC [7] [µg/mL] | MIC [9] [µg/mL] | MIC [10] [µg/mL] | MIC [11] [µg/mL] | MIC [12] [µg/mL] | MIC [13] [µg/mL] | MIC [14] [µg/mL] | MIC [15] [µg/mL] | MIC [16] [µg/mL] | MIC [17] [µg/mL] | MIC [18] [µg/mL] | MIC [19] [µg/mL] | MIC [20] [µg/mL] | MIC [21] [µg/mL] | MIC [22] [µg/mL] | further results
1 | CCC1OC(=O)CC(O)C(C)C(OC2OC(C)C(OC(C)=O)C(N(C)C)C2OC(C)=O)C(CCOc2ccccc2)CC(C)C(=O)C=CC(C)=CC1COC1OC(C)CC(OC)C1OC (centres unmarked) [Compound 10, 2',4'-Di-O-acetyl-4"-deoxy-20-DH-20-O-phenyl-desmycosin] | 50 (≈ 54.5 µM) | 50 (≈ 54.5 µM) | 0.5 (≈ 0.545 µM) | 50 (≈ 54.5 µM) | > 50 | > 50 | 0.25 (≈ 0.272 µM) | > 50 | 4 (≈ 4.36 µM) | 0.5 (≈ 0.545 µM) | > 128 | > 128 | 64 (≈ 69.7 µM) | 0.5 (≈ 0.545 µM) | 2 (≈ 2.18 µM) | 0.5 (≈ 0.545 µM) | > 50 | 3.12 (≈ 3.4 µM) | 0.5 (≈ 0.545 µM) | > 128 | MIC [4, 34]: < 0.048 µg/mL; MIC [8, 34]: 6.25 µg/mL (≈ 6.81 µM); MIC [23]: 50 µg/mL (≈ 54.5 µM); MIC [24]: > 50 µg/mL; MIC [25]: 64 µg/mL (≈ 69.7 µM); MIC [26, 34]: 25 µg/mL (≈ 27.2 µM); MIC [27]: 0.78 µg/mL (≈ 0.85 µM); MIC [28]: 0.25 µg/mL (≈ 0.272 µM); MIC [29, 34]: 6.25 µg/mL (≈ 6.81 µM); MIC [30, 34]: 25 µg/mL (≈ 27.2 µM); MIC [31]: 0.25 µg/mL (≈ 0.272 µM)
2 | CCC1OC(=O)CC(O)C(C)C(OC2OC(C)C(O)C(N(C)C)C2O)C(CCOc2ccccc2)CC(C)C(=O)C=CC(C)=CC1COC1OC(C)CC(OC)C1OC (centres unmarked) [Compound 11, 4"-Deoxy-20-DH-20-O-phenyl-desmycosin] | 25 (≈ 30 µM) | 25 (≈ 30 µM) | 0.25 (≈ 0.3 µM) | 12.5 (≈ 15 µM) | 25 (≈ 30 µM) | 25 (≈ 30 µM) | 0.25 (≈ 0.3 µM) | 25 (≈ 30 µM) | 4 (≈ 4.8 µM) | 0.25 (≈ 0.3 µM) | > 128 | > 128 | 32 (≈ 38.4 µM) | 0.25 (≈ 0.3 µM) | 2 (≈ 2.4 µM) | 0.25 (≈ 0.3 µM) | > 50 | 1.56 (≈ 1.87 µM) | 0.25 (≈ 0.3 µM) | > 128 | MIC [4]: 0.39 µg/mL (≈ 0.468 µM); MIC [8]: > 25 µg/mL; ED50 ([32]; C203, oral): 34 mg/kg; ED50 ([32]; C203, sc, subcutaneous): 10 mg/kg; MIC [33]: 12.5 µg/mL (≈ 15 µM); MIC [23]: 25 µg/mL (≈ 30 µM); MIC [24]: 25 µg/mL (≈ 30 µM); MIC [25]: 32 µg/mL (≈ 38.4 µM); MIC [26]: 25 µg/mL (≈ 30 µM); MIC [27]: 0.78 µg/mL (≈ 0.935 µM); MIC ([28]; agar-dilution, read-out: MIC): 0.125 µg/mL (≈ 0.15 µM); MIC [29]: 12.5 µg/mL (≈ 15 µM); MIC [30]: 25 µg/mL (≈ 30 µM); MIC [31]: 0.25 µg/mL (≈ 0.3 µM)
